Each structure is given as a SMILES string. Where “and” joins values, the source holds several entries; their conditions need not be identical. Equal entries are not always repeated. Entries after “also recorded” stand apart in the source; their conditions may differ.

Test [1] relates to CXCR4 on murine KL and SKL cells. The test is described as follows: CXCR4 surface expression by FACS after pulse exposure, murine cells. To be noted: for CXCR4 expression on KL and SKL cells: pulse-exposure of Lin neg cells, 24 hours. The format is cell-based, mouse. The source says: Expression of EP receptors, CXCR4 and Survivin Replicate Lin^neg cell samples from CD45.2 mice were stained for SKL and each of the EP receptors and surface receptor expression on KL and SKL cells determined by FACS. For human EP receptors, UCB was obtained from Wishard Hospital, Indianapolis, Ind. with Institutional Review Board approval. Mononuclear cells were isolated on Ficoll-Paque™ Plus (Amersham Biosciences) and CD34^+ cells positively selected with MACS microbeads (Miltenyi Biotech) (Fukuda and Pelus, 2001). Replicate cells were stained for CD34 and each of the EP receptors and surface expression determined by FACS. To evaluate CXCR4, Survivin and active caspase-3, Lin^neg cells or CD34^+ UCB were treated on ice with either 1 microMolar dmPGE2 or vehicle control for 2 hours, washed, and then cultured in RPMI-1640+10% FBS at 37° C. for 24 hours. Cells were stained for SKL (murine cells) and CXCR4, Survivin, and/or active caspase-3, as described above, and analyzed by FACS.
To evaluate CXCR4, Lineage^neg mouse bone marrow cells or CD34^+ UCB were treated on ice with either 1 microMolar dmPGE2 or vehicle control for 2 hours, washed, and then cultured in RPMI-1640/10% HI-FBS at 37° C. for 24 hours, stained for SKL (murine cells) or CD34 (human) and CXCR4 and analyzed by FACS. Referring now to FIG. 4A, CXCR4 expression on murine KL and SKL cells and human CD34^+ UCB cells 24 hours after treatment with dmPGE2. Data are expressed as Mean±SEM % change in mean fluorescence intensity (MFI) of CXCR4 due to treatment with dmPGE2 or vehicle (n=3).
For orientation: Flow cytometry measures light scatter and fluorescence of single cells or particles in a stream.

For a further test, the system named is SKL cells. As to the kind of experiment: Apoptosis assay (Annexin-V+ SKL cells). It is filed as cell-based, mouse. Particulars: for apoptosis of SKL cells in vitro: 0.1 nanoMolar-1 microMolar. On the procedure:
Lin^neg cells were treated on ice with 0.1 nanoMolar to 1 microMolar dmPGE2 or vehicle control, washed and incubated in RPMI-1640+2% FBS, without growth factors at 37° C. to induce apoptosis. After 24 hours, cells were stained for SKL and Annexin-V and the proportion of Annexin-V^+ SKL cells was determined by FACS.
Apoptosis is an important regulatory process in normal and malignant hematopoiesis and PGE2 has been implicated in anti-apoptotic signalling. Moreover, activation of cAMP, a downstream signaling molecule of EP receptors, inhibits apoptosis in CD34^+ cells. […] To evaluate an effect of dmPGE2 on HSPC survival, Lin^neg cells were pulsed with 0.1 nanoMolar-1 microMolar dmPGE2 or vehicle and cultured in serum-reduced culture medium without growth factors.

Test [2] concerns long-term repopulating HSPC. As to the kind of experiment: Limiting dilution competitive transplantation of ex vivo pulsed bone marrow. The format is in vivo, mouse. The method, then: WBM cells (CD45.2) were treated on ice for 2 hours with either 1 microMolar dmPGE2 (Cayman Chemical, Ann Arbor, Mich.) per 1×10^6 cells or 0.01% ETOH in sterile, non-pyrogenic PBS. After incubation, cells were washed twice and mixed with 2×10^5 congenic CD45.1 competitor marrow cells at ratios of 0.075:1, 0.25:1, 1:1, and 2.5:1 and transplanted into lethally irradiated CD45.1 mice (1100-cGy split dose) by tail-vein injection (5 mice per dilution). CD45.1 and CD45.2 cells in PB were determined monthly by flow cytometry. For head-to-head competitive transplants, WBM from CD45.1 mice and CD45.2 mice were treated with vehicle or dmPGE2 and mixed with 2×10^5 competitor marrow cells from CD45.1/CD45.2 mice at ratios of 0.075:1, 0.25:1, 1:1, and 2.5:1 and transplanted into lethally irradiated CD45.1/CD45.2 mice. The proportion of CD45.1, CD45.2, and CD45.1/CD45.2 cells in PB was determined monthly. HSPC frequency was quantitated by Poisson statistics using L-CALC software (Stem Cell Technologies, Vancouver BC, Canada) with <5% contribution to chimerism considered a negative recipient. Competitive repopulating units (CRU) were calculated as described (Harrison, 1980). For secondary transplants, 2×10^6 WBM from previously transplanted F1 Hybrid mice at the 1:1 ratio at 20 weeks post-transplant were injected into lethally irradiated F1 Hybrid mice in non-competitive fashion and PB chimerism and tri-lineage reconstitution evaluated monthly.
Referring now to FIG. 1A, bone marrow from CD45.1 or CD45.2 mice were treated with vehicle or dmPGE2 respectively. CD45.1/CD45.2 hybrid marrow cells were used as competitors. Limiting dilutions were transplanted into lethally irradiated (1100 cGys, split dose) CD45.1/CD45.2 hybrid mice and chimerism in PB analyzed for 20 weeks. A representative flow plot detecting each cell population is shown (bottom panel).
Referring now to FIG. 1B, frequency analysis (top) for vehicle (red) or dmPGE2 (blue) pulsed cells, determined by Poisson statistics, at 12 weeks; P0=85,560 (vehicle) and P0=23,911 (dmPGE2 treated). Chimerism in PB and CRU analysis is shown at 12 weeks (Mean±SEM). Data represent 2 pooled experiments, n=5 mice/group/expt., each assayed individually.
This model permits quantitative comparison of engraftment and competitiveness of HSPC from control and dmPGE2 treatment groups within the same animal (FIG. 1A), as well as endogenous repopulation of host cells.
For head-to-head competitive analysis, WBM from CD45.1 and CD45.2 mice were treated with vehicle or dmPGE2 and mixed with 2×10^5 competitor marrow cells from CD45.1/CD45.2 mice at various ratios and transplanted into lethally-irradiated CD45.1/CD45.2 mice. The proportion of CD45.1, CD45.2, and CD45.1/CD45.2 cells in PB was determined monthly. For secondary, tertiary and quaternary transplants, 2×10^6 WBM from previously transplanted CD45.1/CD45.2 mice at a 1:1 ratio were injected into lethally-irradiated CD45.1/CD45.2 mice in non-competitive fashion. The proportion of CD45.1, CD45.2, and CD45.1/CD45.2 cells in PB was determined monthly. […] Data for 20 week primary transplant were from 2 pooled experiments, n=5 mice/group/experiment, each assayed individually. Data for secondary, tertiary, and quaternary transplants were from n=5 mice/group, each assayed individually

Where [3] appears, read: 12 weeks post-transplant, vs vehicle treated cells.

On to `CCCCC[C@H](O)/C=C/[C@H]1[C@H](O)CC(=O)[C@@H]1C/C=C\CCCC(=O)O` [PGE2, Prostaglandin E2], for which the “increase in CXCR4 expression on SKL” value in test [1] (after PGE2 exposure) stood at 26.8%. Besides, the “CXCR4 expression on KL and SKL cells” value in test [1] was “increased”. In the test with SKL cells, the “apoptosis of SKL cells in vitro” value is on record as “dose-dependently decreased apoptosis”. In addition, in test [2] (frequency analysis, limiting dilution), the “number of treated cells giving equivalent reconstitution vs control cells” value is given as “one-fourth”. Moreover, the “period over which enhanced engraftment / HSPC frequency was stable” value in test [2] (primary transplant) was 28 weeks and > 20 weeks. Further, the “competitive advantage / increase in HSPC frequency of PGE2-pulsed HSPC” value in test [2] (short-term ex vivo exposure, vs control cells, Poisson statistics and CRU) is recorded as 4 fold.

Consider `CCCCC(C)(C)[C@H](O)/C=C/[C@H]1[C@H](O)CC(=O)[C@@H]1C/C=C\CCCC(=O)O` [dmPGE2, 16,16-dimethyl prostaglandin E2], for which the “CXCR4 expression on KL and SKL cells” value in test [1] was “increased CXCR4 expression”. Also, the “apoptosis of SKL cells in vitro” value with SKL cells was “reduced apoptosis in SKL cells in a dose dependent fashion”. Besides, the “inhibition of apoptosis in SKL cells” value in the test with SKL cells (at 1 microMolar, serum-reduced medium without growth factors, 24 hours) is recorded as around 65%. Further, in test [2] (setting [3]), the “chimerism in peripheral blood” value is reported as “increased chimerism”; the “increase in HSPC frequency and competitive repopulating units (CRU)” value is recorded as around 4 fold. The “reconstitution of B- and T-lymphoid and myeloid lineages in PB” value in test [2] (32 weeks post-transplant, vs untreated competitor or vehicle treated cells) is listed as “no discernible differences”. The “HSPC frequency analysis P0 (Poisson statistics)” value in test [2] (at 12 weeks, pulsed cells) is 23,911. Further, in test [2] (no additional treatment before serial transplant), the “chimerism in serial (secondary, tertiary, quaternary) transplants” value is on record as “also seen in secondary transplants; also recorded: Increased chimerism”. In addition, in test [2] (throughout 20 weeks of follow up post-transplant), the “increase in HSPC frequency” value is on record as around 4 fold.

For the origin of these results see US9107909B2, “Materials and methods to enhance hematopoietic stem cells engraftment procedures” (priority 2008, dated 2015).
